Source: US7432392B2, “Ester derivatives and medical use thereof” (Japan Tobacco Inc., priority 2003, dated 2008)
pIC50: −log10 of the molar value.

Assays:
[1] = target: T1, Microsomal triglyceride transfer protein (MTP) from bovine liver (Bos taurus, UniProt P55156); assay: Inhibition of interliposomal triglyceride (TG) transfer activity by MTP; type: biochemical; conditions: MTP-mediated TG transfer between donor and acceptor liposomes, 37° C., one hour
T1 construct: the purified MTP was used for the test; from tissue; host or cells: bovine liver
T1 sequence (P55156 12-887): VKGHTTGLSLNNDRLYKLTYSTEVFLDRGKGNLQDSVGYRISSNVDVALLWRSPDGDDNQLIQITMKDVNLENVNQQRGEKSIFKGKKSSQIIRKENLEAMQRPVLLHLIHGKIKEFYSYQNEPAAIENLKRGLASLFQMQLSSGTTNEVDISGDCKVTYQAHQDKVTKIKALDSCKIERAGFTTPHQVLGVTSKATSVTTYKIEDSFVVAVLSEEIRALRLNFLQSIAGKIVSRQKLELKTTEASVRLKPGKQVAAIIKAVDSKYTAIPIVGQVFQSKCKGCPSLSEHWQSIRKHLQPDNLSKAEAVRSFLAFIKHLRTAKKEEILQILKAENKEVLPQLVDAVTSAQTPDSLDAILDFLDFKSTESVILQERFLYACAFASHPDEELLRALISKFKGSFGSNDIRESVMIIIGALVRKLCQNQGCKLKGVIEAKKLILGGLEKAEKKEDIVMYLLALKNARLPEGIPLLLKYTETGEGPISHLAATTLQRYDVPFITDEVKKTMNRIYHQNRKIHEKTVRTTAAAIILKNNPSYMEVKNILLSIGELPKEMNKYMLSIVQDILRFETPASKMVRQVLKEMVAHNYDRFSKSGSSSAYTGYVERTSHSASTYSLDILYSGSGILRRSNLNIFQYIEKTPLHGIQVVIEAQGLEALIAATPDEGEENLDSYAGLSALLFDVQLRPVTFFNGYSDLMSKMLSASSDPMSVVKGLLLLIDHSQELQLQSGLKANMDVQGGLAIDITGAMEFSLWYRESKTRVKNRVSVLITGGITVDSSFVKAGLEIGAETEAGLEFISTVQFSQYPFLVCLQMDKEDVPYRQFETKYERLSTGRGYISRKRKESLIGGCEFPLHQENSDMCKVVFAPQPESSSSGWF
T1 sequence (P05307 21-510 partner): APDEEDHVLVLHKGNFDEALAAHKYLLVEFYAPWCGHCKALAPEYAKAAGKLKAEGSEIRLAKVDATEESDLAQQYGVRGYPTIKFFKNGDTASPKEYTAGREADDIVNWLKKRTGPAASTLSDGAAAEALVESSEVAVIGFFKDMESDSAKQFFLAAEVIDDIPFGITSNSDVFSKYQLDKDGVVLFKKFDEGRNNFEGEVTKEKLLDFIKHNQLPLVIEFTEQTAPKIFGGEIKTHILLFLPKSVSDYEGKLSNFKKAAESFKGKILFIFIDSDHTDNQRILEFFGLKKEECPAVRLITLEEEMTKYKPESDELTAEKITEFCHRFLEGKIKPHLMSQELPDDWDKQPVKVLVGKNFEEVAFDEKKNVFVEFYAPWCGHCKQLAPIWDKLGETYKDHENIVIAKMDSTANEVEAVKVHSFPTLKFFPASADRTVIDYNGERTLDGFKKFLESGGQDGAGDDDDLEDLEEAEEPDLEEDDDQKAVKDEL
Experimental: Microsomal triglyceride transfer protein (MTP) from bovine liver was partially purified in such a way described below. A buffer (50 mM Tris, 250 mM sucrose, 1 mM EDTA, 0.02% NaN3 (pH 7.4)) for making a homogenate preparation was added to bovine liver, and the mixture was homogenated under ice-cooling, then centrifuged at 10,000×g (4° C., 30 minutes) The supernatant was adjusted to pH 5.1 with hydrochloric acid, and stirred for 30 minutes. The solution was further centrifuged at 10,000×g (4° C., 30 minutes), and 1 mM Tris buffer was added to the precipitated residue, and the mixture was adjusted to pH 8.6 with sodium hydroxide. After addition of 2.7 M ammonium sulfate solution, the mixture was stirred for 30 minutes, then centrifuged at 10,000×g (4° C., 40 minutes). The resulting supernatant was served as a crude extraction fraction of MTP and stored at −80° C. under freezing. In its practical use, the crude extraction fraction of MTP was purified by column chromatography on diethylaminoethyl (DEAE) Sepharose using FPLC (Fast Performance Liquid Chromatography) system, and the purified MTP was used for the test.
Small unilamellar-vesicle (SUV) liposome (donor, 0.25 mol % triolein, 5 mol % cardiolipin) labeled with ^14C-triolein and non-labeled SUV liposome (acceptor, 0.25 mol % triolein) were prepared. A fixed amount of donor and acceptor, and MTP were mixed with a sample dissolved in DMSO or with DMSO. The mixture was incubated in a 15 mM Tris hydrochloride buffer (pH 7.4) containing 40 mM sodium chloride, 1 mM EDTA (ethylenediaminetetraacetic acid), 0.02% NaN3 and 0.5% bovine serum albumin at 37° C. for one hour. After completion of the incubation, a suspension of DEAE cellulose (50% v/v) in 15 mM Tris hydrochloride buffer (pH 7.4) was added to the above solution, and the mixture was centrifuged to separate the donor and the acceptor. The radioactivity in the acceptor was measured by liquid scintillation counter. The value obtained by subtracting the radioactivity in the blank from the amount of radioactivity in the acceptor of a DMSO group was determined as MTP-mediated TG transfer activity, and it was compared with the value obtained by subtracting the radioactivity in the blank from the radioactivity in a sample group. The blank was prepared by adding 15 mM Tris-HCl buffer (pH 7.4) in place of MTP. Inhibition rate (%) was calculated from the values obtained according to the following equation.
Inhibition rate (%)=100×(1 minus ((radioactivity of sample group minus radioactivity of blank group)/(radioactivity of DMSO group minus radioactivity of blank group))). 50% Inhibition rate (IC50) was determined on the basis of the above equation.

[2] = tested on: apolipoprotein B secretion from HepG2 cells; assay: Inhibition of apolipoprotein B secretion from HepG2 cells; type: cell-based; conditions: Homo sapiens, about 20 hours incubation, apo B in supernatant by ELISA
Experimental: HepG2 cells were suspended in Dulbecco's Modified Eagle's Medium (DMEM) (containing 10% fetal bovine serum, 100 units/mL penicillin and 100 μg/mL streptomycin), and placed on a 96-well plate (4×10^4 cells/well), then incubated for 24 hours. After removal of the medium, DMEM was replaced by a medium containing a sample dissolved in DMSO or a medium containing DMSO (concentration of DMSO: 0.5%) and incubation was further performed for about 20 hours, after which the supernatant was recovered, and concentration of apo B in the supernatant was assayed by Enzyme-Linked Immunosorbent Assay (ELISA)
ELISA was carried out as follows. Anti-human apo B monoclonal antibody (0.5 μg/well) diluted with a 50 mM sodium carbonate/sodium bicarbonate buffer was placed in a 96-well plate for ELISA, and allowed to stand at room temperature for 15 hours. After washing the plate, a blocking solution (250 μL/well) was placed in the well, and allowed to stand at room temperature for 1.5 hours. After washing the plate, a standard and a sample (100 μL/well) were placed in the well and allowed to stand at room temperature for 1.5 hours. The standard was prepared by adjusting the concentration of the purified human apo B with the DMEM to 0 to 250 ng/mL. After washing the plate, an anti-human apo B polyclonal antibody labeled with a horse radish peroxidase which was diluted in 1:1000 with DEME (100 μL/well) was added, and allowed to stand at room temperature for 1.5 hours. After washing the plate, 2,2-azinobis(3-ethylbenzothiazoline-6-sulfonic acid) solution (100 μL/well) was placed in the well, and allowed to stand at room temperature for 0.5 hour. The reaction was stopped by addition of 2% oxalic acid (100 μL/well), and absorbency at 405 nm was measured. Concentration of apo B in the sample was calculated on the basis of a standard curve of the standard. Inhibition rate (%) was calculated from the assayed values in accordance with the following equation. Inhibition rate (%)=100×(1 minus (concentration of apo B in sample group/concentration of apo B in DMSO group).
Based on the above equation, 50% inhibition concentration (IC50) was determined.

Row | SMILES | pIC50 [1] | pIC50 [2] | melting point [°C]
1 | CCOC(=O)C(COC(=O)COc1ccc(NC(=O)c2ccccc2-c2ccc(C(F)(F)F)cc2)c(C(=O)N(C)C)c1)(C(=O)OCC)c1ccccc1 [Example 3-2, 2-(2-{3-Dimethylcarbamoyl-4-[(4′-trifluoromethylbiphenyl-2-carbonyl)amino]phenoxy}acetoxymethyl)-2-phenylmalonic acid diethyl ester] | > 8.00 | – | 132 to 138
2 | CCOC(=O)C(COC(=O)Cc1ccc(NC(=O)c2ccccc2-c2ccc(C(F)(F)F)cc2)c(OC(=O)CC)c1)(C(=O)OCC)c1ccccc1 [Example 1-2] | > 8.00 | > 6.00 | –
3 | CCOC(=O)C(COC(=O)Cc1ccc(NC(=O)c2ccccc2-c2ccc(C(F)(F)F)cc2)c(OC(=O)COC)c1)(C(=O)OCC)c1ccccc1 [Example 1-3] | > 8.00 | > 6.00 | –
4 | CCOC(=O)C(COC(=O)Oc1ccc(NC(=O)c2ccccc2-c2ccc(C(F)(F)F)cc2)c(C(=O)N2CCCC2)c1)(C(=O)OCC)c1ccccc1 [Example 2-14] | > 8.00 | – | –
5 | CCOC(=O)C(COC(=O)Oc1cc(C(=O)N(C)C)c(NC(=O)c2ccccc2-c2ccc(C(F)(F)F)cc2)cc1F)(C(=O)OCC)c1ccccc1 [Example 2, 2-{5-Dimethylcarbamoyl-2-fluoro-4-[(4′-trifluoromethyl-biphenyl-2-carbonyl)amino]phenoxycarbonyloxymethyl}-2-phenylmalonic acid diethyl ester] | > 8.00 | – | –
6 | CCOC(=O)C(COC(=O)Oc1ccc(NC(=O)c2ccc(C)nc2-c2ccc(C(F)(F)F)cc2)c(C(=O)N(C)C)c1)(C(=O)OCC)c1ccccc1 [Example 2-19] | > 8.00 | – | –
7 | CCOC(=O)C(COC(=O)Oc1c(F)cc(NC(=O)c2ccccc2-c2ccc(C(F)(F)F)cc2)c(OC(=O)N(C)C)c1F)(C(=O)OCC)c1cccs1 [Example 2-50] | 7.00 to 8.00 | – | –
8 | CCOC(=O)C(COC(=O)Cc1cccc(NC(=O)c2ccccc2-c2ccc(C(F)(F)F)cc2)c1OC(C)=O)(C(=O)OCC)c1ccccc1 [Example 1-4] | 7.00 to 8.00 | > 5.00 | –
9 | CCOC(=O)C(COC(=O)Oc1c(F)cc(NC(=O)c2cccc(OC)c2-c2ccc(C(F)(F)F)cc2)c(C(=O)N(C)C)c1F)(C(=O)OCC)c1cccs1 [Example 2-36] | > 8.00 | – | –
10 | CCOC(=O)C(COC(=O)Oc1c(F)cc(NC(=O)c2cccc(C)c2-c2ccc(C(F)(F)F)cc2)c(C(=O)N(C)C)c1F)(C(=O)OCC)c1cccs1 [Example 2-34] | > 8.00 | – | –
11 | CCOC(=O)C(COC(=O)Oc1c(F)cc(NC(=O)c2ccccc2-c2ccc(C(F)(F)F)cc2)c(OC)c1F)(C(=O)OCC)c1cccs1 [Example 2-48] | > 8.00 | – | –

Second part, led by results:

Row | pIC50 [1] | pIC50 [2] | SMILES | melting point [°C]
12 | > 8.00 | – | CCNC(=O)C(COCC(=O)OCc1ccc(NC(=O)c2ccccc2-c2ccc(C(F)(F)F)cc2)c(C(=O)N(C)C)c1)(C(=O)NCC)c1ccccc1 [Example 3-24] | –
13 | > 8.00 | – | CCOC(=O)C(CC(=O)Oc1ccc(NC(=O)c2ccccc2-c2ccc(C(F)(F)F)cc2)c(C(=O)N(C)C)c1)(C(=O)OCC)c1ccccc1 [Example 3-4] | –
14 | 7.00 to 8.00 | – | CCN(C)C(=O)C(CCC(=O)Oc1c(F)cc(NC(=O)c2ccccc2-c2ccc(C(F)(F)F)cc2)c(C(=O)N(C)C)c1F)(C(=O)N(C)CC)c1ccccc1 [Example 3-18] | –
15 | 6.00 to 7.00 | – | CCN(C)C(=O)C(CCCC(=O)Oc1c(F)cc(NC(=O)c2ccccc2-c2ccc(C(F)(F)F)cc2)c(C(=O)N(C)C)c1F)(C(=O)N(C)CC)c1ccccc1 [Example 3-19] | –
